In paper PMC12288454, “Functional consequences of genetic variations in DgoR, a GntR/FadR family transcriptional repressor of D-galactonate metabolism in Escherichia coli” (Journal of Bacteriology, 2025):

T1: DgoR (BW WT DgoR) (Escherichia coli, UniProt P31460, A152E)
T1 construct: full length (229 aa), C-terminal 6XHis tag, expressed from Ptrc in pRC10 in E. coli BL21(DE3), Co-NTA purified; dimer
T1 sequence (P31460 1-229 A152E): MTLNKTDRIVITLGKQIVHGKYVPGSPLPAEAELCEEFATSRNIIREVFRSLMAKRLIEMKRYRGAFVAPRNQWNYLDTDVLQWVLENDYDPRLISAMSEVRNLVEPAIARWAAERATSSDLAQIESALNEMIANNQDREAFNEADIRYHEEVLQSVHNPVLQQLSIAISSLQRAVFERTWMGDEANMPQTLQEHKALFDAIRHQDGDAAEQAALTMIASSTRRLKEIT

T2: DgoR (BW WT DgoR) (Escherichia coli, UniProt P31460)
T2 construct: full length (229 aa), C-terminal 6XHis tag, expressed from Ptrc in pRC10 in E. coli BL21(DE3), Co-NTA purified; dimer
T2 sequence (P31460 1-229): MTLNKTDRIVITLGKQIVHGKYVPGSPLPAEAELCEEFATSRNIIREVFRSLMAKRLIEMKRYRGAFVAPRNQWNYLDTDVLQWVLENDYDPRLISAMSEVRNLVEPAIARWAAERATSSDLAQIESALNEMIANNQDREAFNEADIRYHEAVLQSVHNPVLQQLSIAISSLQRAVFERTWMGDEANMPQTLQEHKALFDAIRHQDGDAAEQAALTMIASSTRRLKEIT

T3: DgoR (BW WT DgoR) (Escherichia coli, UniProt P31460, R71C)
T3 construct: full length (229 aa), C-terminal 6XHis tag, expressed from Ptrc in pRC10 in E. coli BL21(DE3), Co-NTA purified; dimer
T3 sequence (P31460 1-229 R71C): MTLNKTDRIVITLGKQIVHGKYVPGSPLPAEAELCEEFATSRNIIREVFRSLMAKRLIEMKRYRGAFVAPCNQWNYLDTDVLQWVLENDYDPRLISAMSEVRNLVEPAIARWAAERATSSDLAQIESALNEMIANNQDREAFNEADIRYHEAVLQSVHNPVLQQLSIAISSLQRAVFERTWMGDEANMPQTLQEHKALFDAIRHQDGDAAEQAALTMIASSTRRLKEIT

T4: DgoR WT (Escherichia coli BW, UniProt P31460 1-229)
T4 sequence: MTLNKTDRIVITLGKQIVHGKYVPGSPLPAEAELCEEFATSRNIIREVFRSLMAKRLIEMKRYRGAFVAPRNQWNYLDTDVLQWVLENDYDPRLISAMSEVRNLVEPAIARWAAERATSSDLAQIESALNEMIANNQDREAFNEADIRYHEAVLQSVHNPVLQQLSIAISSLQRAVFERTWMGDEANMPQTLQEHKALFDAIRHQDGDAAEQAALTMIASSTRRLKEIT


Legend:
[1] = biological target: T1, DgoR (BW WT DgoR); test: label-free microscale thermophoresis; type: binding
[2] = biological target: T2, DgoR (BW WT DgoR); test: label-free microscale thermophoresis; type: binding
[3] = biological target: T3, DgoR (BW WT DgoR); test: label-free microscale thermophoresis; type: binding
[4] = biological target: T4, DgoR WT; test: EMSA; no effector; apparent Kd, Hill fit; 10 nM DNA, 50 mM Tris pH 8.5, 10 mM MgCl2, 265 mM NaCl, 1 mM PMSF, 12% glycerol, 2 mM DTT, 1 ug herring sperm DNA per 20 uL, 27 C 30 min; effector pre-incubation 37 C 20 min; 8% native PAGE 0.5x TBE; conditions: protein: recombinant; tags: C-terminal 6xHis; chain copies: 2; label: 5'-Cy5 on strand 1; blunt

Molecule	Kd [1] [µM]	Kd [2] [µM]	Kd [3] [µM]	Kd [4] [µM]
O=C(O)[C@H](O)[C@@H](O)[C@@H](O)[C@H](O)CO [D-galactonate]	11.3 ± 0.2	10.3 ± 0.3	32.9 ± 1.2	–
dgo promoter probe GA149/GA150 (dsDNA) DNA 1: GTGATCTAAATTGTAGTACAACAATATAAGTTTGTACTACATTACACGCACG DNA 2: CGTGCGTGTAATGTAGTACAAACTTATATTGTTGTACTACAATTTAGATCAC	–	–	–	0.494 ± 0.019
